# Measured values reported in ChEMBL document CHEMBL4052785, “Discovery of (R)-5-(benzo[d][1,3]dioxol-5-yl)-7-((1-(vinylsulfonyl)pyrrolidin-2-yl)methyl)-7H-pyrrolo[2,3-d]pyrimidin-4-amine (B6) as a potent Bmx inhibitor for the treatment of NSCLC” (Bioorg Med Chem Lett, 2017).
# How the values were obtained:
# NCI-H1975 [1] = test: Antiproliferative activity against human NCI-H1975 cells harboring EGFR L858R/T790M mutant after 72 hrs by MTT assay; type: functional, cell-based; details: NCI-H1975, 72 h
# A549 = test: Antiproliferative activity against human A549 cells harboring wild type EGFR after 72 hrs by MTT assay; type: functional, cell-based; details: A549, 72 h
# [2] = Aqueous solubility of the compound at 1 mg; type: physicochemical
# HCC827 = test: Antiproliferative activity against human HCC827 cells harboring EGFR Del19 mutant after 72 hrs by MTT assay; type: functional, cell-based; details: HCC827, 72 h
# NCI-H1975 [3] = test: Antitumor activity against human NCI-H1975 cells xenografted in nude mouse assessed as tumor growth inhibition at 25 mg/kg administered via oral gavage qd measured every 2 days up to 18 days relative to control; type: functional; details: read-out: TGI
IC50 (NCI-H1975 [1]) [µM],IC50 (A549) [µM],solubility [2] [µg/mL],IC50 (HCC827) [µM],Compound,inhibition in vivo at 25 mg/kg (NCI-H1975 [3]) [%]
0.33,1.78,100,0.016,C=CS(=O)(=O)N1CC[C@H](Cn2cc(-c3ccc4c(c3)OCO4)c3c(N)ncnc32)C1,–
1.92,15.5,< 10,–,C=CC(=O)N1CCC[C@@H]1Cn1cc(-c2ccc(Oc3ccccc3)cc2)c2c(N)ncnc21,–
6.31,14.2,< 10,–,"C=CC(=O)N1CCC(Cn2cc(-c3ccc(Oc4ccccc4)cc3)c3c(N)ncnc32)C1 (single isomer, unassigned)",–
2.92,12.9,100,–,C=CC(=O)N1CCC[C@@H]1Cn1cc(-c2ccc3c(c2)OCO3)c2c(N)ncnc21,–
0.44,7.44,< 10,0.504,C=CS(=O)(=O)N1CCC[C@@H]1Cn1cc(-c2ccc(Oc3ccccc3)cc2)c2c(N)ncnc21,–
6.3,8.24,100,–,"C=CC(=O)N1CCC(Cn2cc(-c3ccc4c(c3)OCO4)c3c(N)ncnc32)C1 (single isomer, unassigned)",–
0.91,13,< 10,0.581,C=CS(=O)(=O)N1CC[C@H](Cn2cc(-c3ccc(Oc4ccccc4)cc3)c3c(N)ncnc32)C1,–

Compound,IC50 (NCI-H1975 [1]) [µM],IC50 (A549) [µM],solubility [2] [µg/mL],IC50 (HCC827) [µM],inhibition in vivo at 25 mg/kg (NCI-H1975 [3]) [%]
C=CC(=O)N1CCC[C@@H](n2nc(-c3ccc(Oc4ccccc4)cc3)c3c(N)ncnc32)C1 [IBRUTINIB],1.27,21.8,< 10,0.039,59.6
